Data reported in BindingDB's records for doi:10.1007/s002100000327 (Leicester Royal Infirmary, 2001).

Assays:
[1] = biological target: Kappa-type opioid receptor (Homo sapiens, UniProt P41145)
Mu-type opioid receptor = Mu-type opioid receptor (Homo sapiens, UniProt P35372)
[2] = biological target: Delta-type opioid receptor (Homo sapiens, UniProt P41143)
Delta-type opioid receptor, sequence (P41143 whole entry): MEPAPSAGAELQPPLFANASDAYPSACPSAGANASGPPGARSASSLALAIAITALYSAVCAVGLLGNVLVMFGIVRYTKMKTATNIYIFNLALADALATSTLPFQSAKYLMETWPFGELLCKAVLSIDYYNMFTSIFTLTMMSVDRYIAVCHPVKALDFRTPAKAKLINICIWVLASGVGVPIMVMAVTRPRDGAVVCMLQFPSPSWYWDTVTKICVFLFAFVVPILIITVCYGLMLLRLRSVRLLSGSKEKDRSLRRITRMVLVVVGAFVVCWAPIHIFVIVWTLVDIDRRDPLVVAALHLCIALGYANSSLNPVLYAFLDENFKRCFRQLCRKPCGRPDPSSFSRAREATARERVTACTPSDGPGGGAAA

Kappa-type opioid receptor, sequence (P41145 whole entry): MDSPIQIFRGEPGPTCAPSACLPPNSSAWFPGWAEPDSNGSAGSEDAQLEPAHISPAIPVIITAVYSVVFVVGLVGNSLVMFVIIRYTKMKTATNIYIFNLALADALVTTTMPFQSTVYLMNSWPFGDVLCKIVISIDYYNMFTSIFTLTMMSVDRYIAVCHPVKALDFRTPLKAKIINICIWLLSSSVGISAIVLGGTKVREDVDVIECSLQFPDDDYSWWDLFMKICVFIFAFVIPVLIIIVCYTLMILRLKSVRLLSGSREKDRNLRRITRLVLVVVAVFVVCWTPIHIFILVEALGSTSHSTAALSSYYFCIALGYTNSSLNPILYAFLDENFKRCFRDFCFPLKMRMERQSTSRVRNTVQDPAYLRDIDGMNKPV
Mu-type opioid receptor, sequence (P35372 whole entry): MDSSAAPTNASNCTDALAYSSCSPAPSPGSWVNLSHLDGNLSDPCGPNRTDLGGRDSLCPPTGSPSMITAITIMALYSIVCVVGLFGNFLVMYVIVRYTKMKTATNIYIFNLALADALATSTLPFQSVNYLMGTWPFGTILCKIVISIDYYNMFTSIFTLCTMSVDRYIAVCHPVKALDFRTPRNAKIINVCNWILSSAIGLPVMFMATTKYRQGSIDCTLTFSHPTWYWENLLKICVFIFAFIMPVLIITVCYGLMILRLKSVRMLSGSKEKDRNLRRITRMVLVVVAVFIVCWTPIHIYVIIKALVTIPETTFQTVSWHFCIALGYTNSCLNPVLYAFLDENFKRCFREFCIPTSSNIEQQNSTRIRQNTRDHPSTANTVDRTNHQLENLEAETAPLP

| SMILES | Ki [1] [nM] | Ki (Mu-type opioid receptor) [nM] | Ki [2] [nM] |
| --- | --- | --- | --- |
| CC(=O)N[C@@H](CCCN=C(N)N)C(=O)N[C@H](CC1CCCCC1)C(=O)N[C@H]1CC[C@@H]2SC[C@@H](C(=O)N[C@H](CCCN=C(N)N)C(=O)N[C@H](Cc3ccc(Cl)cc3)C(N)=O)N2C1=O [NOCICEPTIN RECEPTOR ANTAGONIST PEPTIDE III-BTD] | 11.5 | 8.91 | 60.3 |
| C[C@H](NC(=O)CNC(=O)[C@@H](NC(=O)[C@H](Cc1ccccc1)NC(=O)CNC(=O)CNC(=O)CNCc1ccccc1)[C@@H](C)O)C(=O)N[C@@H](CCCN=C(N)N)C(=O)N[C@@H](CCCCN)C(=O)N[C@@H](CO)C(=O)N[C@@H](C)C(=O)N[C@@H](CCCN=C(N)N)C(=O)N[C@@H](CCCCN)C(N)=O [H-PHE-(R)-GLY-GLY-PHE-THR-GLY-ALA-ARG-LYS-SER-ALA-ARG-LYS-NH2] | 1100 | > 10000 | > 10000 |
